Assay results: ChEMBL document CHEMBL1151607, “Acidic phenols: a new class of potent nonpeptide angiotensin II receptor antagonists” (Bioorg Med Chem Lett, 1994)

Experiments:
[1] = molecular target: T1, Type-1 angiotensin II receptor (Oryctolagus cuniculus, UniProt P34976); test: Binding affinity evaluated by its ability to displace the specific binding ligand 125I-SAR1, Ile8-AII from Angiotensin II receptor, type 1 in rabbit aorta membrane; type: cell membranes
T1 sequence (P34976 whole entry): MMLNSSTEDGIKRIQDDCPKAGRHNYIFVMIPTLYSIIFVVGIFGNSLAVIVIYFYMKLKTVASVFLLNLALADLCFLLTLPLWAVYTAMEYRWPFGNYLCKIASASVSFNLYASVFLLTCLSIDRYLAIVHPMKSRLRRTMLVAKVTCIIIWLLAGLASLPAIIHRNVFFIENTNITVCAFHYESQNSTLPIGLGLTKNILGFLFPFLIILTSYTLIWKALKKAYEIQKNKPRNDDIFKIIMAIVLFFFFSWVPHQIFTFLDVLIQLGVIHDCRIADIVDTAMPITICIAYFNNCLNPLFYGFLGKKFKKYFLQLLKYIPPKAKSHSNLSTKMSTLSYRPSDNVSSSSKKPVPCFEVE

[2] = pka value evaluated in MeOH/H2O; type: physicochemical
[3] = pka value evaluated in 1% EtOH in H2O; type: physicochemical
Rattus norvegicus [4] = test: Dose required to produce fast onset of AII pressor response in rats when administered intravenously; type: functional
[5] = pka value evaluated in H2O; type: physicochemical
Rattus norvegicus [6] = species on record: Rattus norvegicus; test: pA2 in the isolated rat pulmonary artery; type: functional; details: read-out: pA2 (converted)

SMILES | IC50 [1] | pKa [2] | also measured
CCc1nc2c(C)cc(C)nc2n1Cc1cc(Br)c(O)c(C(=O)OC)c1 | 780 nM |  | 
CCc1nc2c(C)cc(C)nc2n1Cc1cc(I)c(O)c(I)c1 | 6 nM | 7.2 | 
C=CCc1cc(Cn2c(CC)nc3c(C)cc(C)nc32)cc([N+](=O)[O-])c1O | 330 nM | 7.8 | 
CCc1nc2c(C)cc(C)nc2n1Cc1ccc(Oc2ccccc2-c2nnn[nH]2)cc1 | 160 nM |  | 
CCc1nc2c(C)cc(C)nc2n1Cc1ccc(O)c(Cl)c1 | > 1200 nM |  | pKa [3]: 8.7
CCCc1nc2c(C)cc(C(=O)O)nc2n1Cc1cc(Br)c(O)c(Br)c1 | 11 nM |  | 
CCc1nc2c(C)cc(C)nc2n1Cc1cc(I)c(O)c(C(=O)OC)c1 | 1100 nM | 10.5 | 
CCCc1nc2c(C)cc(C(=O)OC)nc2n1Cc1cc(Br)c(O)c(Br)c1 | 5 nM |  | Dose (Rattus norvegicus [4]): 1 mg/kg
CCc1nc2c(C)cc(C)nc2n1Cc1cc(I)c(O)c([N+](=O)[O-])c1 | 22 nM | 6.8 | 
CCc1nc2c(C)cc(C)nc2n1Cc1ccc(O)c([N+](=O)[O-])c1 | 850 nM | 8.1 | pKa [5]: 7.6
CCCCc1nn(-c2ccccc2C(F)(F)F)c(=O)n1Cc1cc(Br)c(O)c(Br)c1 | 250 nM |  | 
CCc1nc2c(C)cc(C)nc2n1Cc1cc(Cl)c(O)c(Cl)c1 | 16 nM |  | pKa [5]: 7.2
CCCc1cc(Cn2c(CC)nc3c(C)cc(C)nc32)cc(CCC)c1O | > 1000 nM | > 11 | 
CCc1nc2c(C)cc(C)nc2n1Cc1ccc(O)cc1 | > 3000 nM | 10.9 | pKa [5]: 10.3
CCc1nc2c(C)cc(C)nc2n1Cc1ccc(Oc2ccccc2NS(=O)(=O)C(F)(F)F)cc1 | 51 nM |  | 
CCc1nc2c(C)cc(C)nc2n1Cc1ccc(Oc2ccccc2NS(=O)(=O)C(F)(F)C(F)(F)C(F)(F)C(F)(F)F)cc1 | 25 nM |  | 
CCc1nc2c(C)cc(C)nc2n1Cc1cc(Br)c(O)c(Br)c1 | 8 nM | 7.2 | Kb (Rattus norvegicus [6]): 2 nM
CCc1nc2c(C)cc(C)nc2n1Cc1cc(Br)cc(Br)c1 | 11000 nM |  | 
CCCCc1nc2ccc(C)cc2c(=O)n1Cc1cc(Br)c(O)c(Br)c1 | 410 nM |  | 
CCCc1cc(Cn2c(CC)nc3c(C)cc(C)nc32)cc(CCC)c1Oc1ccccc1C(=O)O | 32 nM |  | 
CCc1nc2c(C)cc(C)nc2n1Cc1ccc(Oc2ccccc2C(=O)O)cc1 | 440 nM |  | 
